Entries after “also recorded” stand apart in the source; their conditions may differ. Like-named read-outs stand apart in the source and are kept apart here.
How the values were obtained:
SMO-E518K = biological target: T1, SMO-E518K (Homo sapiens, UniProt Q99835, E518K); test: Gli-luciferase reporter assay, SMO-E518K overexpression in C3H10T½ cells; format: cell-based
T1 construct: expressed in transfected cells; host or cells: C3H10T1/2 mouse fibroblasts (ATCC CCL-226), pRK5 vector, CMV promoter
T1 sequence (Q99835 28-787 E518K): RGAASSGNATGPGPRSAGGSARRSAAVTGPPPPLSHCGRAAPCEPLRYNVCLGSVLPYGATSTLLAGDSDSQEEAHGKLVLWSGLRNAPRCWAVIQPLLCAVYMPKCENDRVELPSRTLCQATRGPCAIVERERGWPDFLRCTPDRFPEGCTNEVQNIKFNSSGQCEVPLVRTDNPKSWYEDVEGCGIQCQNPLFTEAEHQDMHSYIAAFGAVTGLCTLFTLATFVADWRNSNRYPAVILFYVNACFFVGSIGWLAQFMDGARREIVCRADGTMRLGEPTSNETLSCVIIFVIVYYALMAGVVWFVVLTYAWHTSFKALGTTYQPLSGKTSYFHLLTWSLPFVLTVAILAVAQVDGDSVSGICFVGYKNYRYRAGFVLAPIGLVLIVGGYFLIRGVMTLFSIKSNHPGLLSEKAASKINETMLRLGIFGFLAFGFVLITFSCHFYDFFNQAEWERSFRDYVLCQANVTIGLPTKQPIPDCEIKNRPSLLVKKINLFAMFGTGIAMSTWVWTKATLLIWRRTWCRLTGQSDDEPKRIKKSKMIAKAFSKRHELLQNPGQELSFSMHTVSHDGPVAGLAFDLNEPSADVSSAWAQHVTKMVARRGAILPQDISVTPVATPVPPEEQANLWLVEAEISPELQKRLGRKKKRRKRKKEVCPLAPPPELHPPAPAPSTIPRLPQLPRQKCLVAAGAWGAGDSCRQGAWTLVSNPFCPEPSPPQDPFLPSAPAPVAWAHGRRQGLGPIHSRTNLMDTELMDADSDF
Procedure: (§1) Regions targeted by alanine scan mutagenesis are indicated in light grey. […] Values were normalized to maximum activity levels and represent means±SDs.
(§2) Circles mark the A-, B- and C-rings of some compounds as indicated for HhAntag.
(§3) Gli-luciferase reporter assays. Gli-luciferase reporter assays were performed as described (Rudin, C. M. et al. (2009) N. Engl. J. Med. 361:1173-1178) with the following modifications; C3H10T½ cells (ATCC, CCL-226) were seeded into six-well plates at 1.85×10^5 cells/well and values shown are the mean of four separate experiments ±1 standard deviation (SD).
(§4) These compounds were either identified in high-throughput screens (both in house and by others) or were generated by hit-to-lead optimization of screening hits using traditional medicinal chemistry methods. C3H10T½ cells were co-transfected with wild type or mutant SMO expression vectors together with a Gli-luciferase reporter construct (Murone M. et al. (1999) Curr. Biol. 9(2):76-84), and pathway activation was measured in the presence or absence of 1 μM compound.

medulloblastoma = medulloblastoma patient, widespread metastatic disease; cited from earlier work
SMO-E518A = biological target: T2, SMO-E518A (Homo sapiens, UniProt Q99835, E518A); test: Gli-luciferase reporter assay, SMO-E518A in C3H10T½ cells; format: cell-based; conditions: dose response; signaling activity despite 1 μM
T2 construct: expressed in transfected cells; host or cells: C3H10T1/2 mouse fibroblasts (ATCC CCL-226), pRK5 vector, CMV promoter
T2 sequence (Q99835 28-787 E518A): as the sequence (Q99835 28-787 E518K) above, with K491A counted along it
Procedure: as §1, §3

SMO-D473H = biological target: T3, SMO-D473H (Homo sapiens, UniProt Q99835, D473H); test: Gli-luciferase reporter assay, SMO-D473H overexpression in C3H10T½ cells; format: cell-based
T3 construct: expressed in transfected cells; host or cells: C3H10T1/2 mouse fibroblasts (ATCC CCL-226), pRK5 vector, CMV promoter
T3 sequence (Q99835 28-787 D473H): as the sequence (Q99835 28-787 E518K) above, with D446H, K491E counted along it
Procedure: as §2, §3, §4

[1] = Plasma pharmacokinetics after single oral dose in mice; format: in vivo
From the text: as §2

SMO-WT = biological target: T4, SMO-WT (Homo sapiens, UniProt Q99835); test: Gli-luciferase reporter assay, SMO-WT overexpression in C3H10T½ cells; format: cell-based; conditions: 1 μM compound
T4 construct: expressed in transfected cells; host or cells: C3H10T1/2 mouse fibroblasts (ATCC CCL-226), pRK5 vector, CMV promoter
T4 sequence (Q99835 28-787): as the sequence (Q99835 28-787 E518K) above, with K491E counted along it
Procedure: as §2, §3, §4

[2] = Metabolism by human hepatocytes; format: in vitro ADME; conditions: unpublished observation

| Molecule | potency against SMO-E518K (inhibition of Gli-luciferase activity) (SMO-E518K; 1 μM compound, C3H10T½ cells) | potency against SMO-D473H (inhibition of Gli-luciferase activity) (SMO-D473H; 1 μM compound, C3H10T½ cells) | pharmacokinetic properties in mice [1] | further results |
| --- | --- | --- | --- | --- |
| CS(=O)(=O)c1ccc(C(=O)Nc2ccc(Cl)c(-c3ccccn3)c2)c(Cl)c1 [GDC-0449] | – | – | – | resistance of SMO-E518K to the inhibitor, Gli-luciferase reporter activity (SMO-E518K; dose response, up to 1 μM): completely resistant; clinical response to treatment (medulloblastoma): dramatic and rapid response; resistance of SMO-E518A to the inhibitor, Gli-luciferase reporter activity (SMO-E518A): partially resistant |
| Cc1nn(-c2ccccc2)c(C)c1/C=N/N1CCN(Cc2ccccc2)CC1 [SANT-1] | sensitive | partially resistant | – | – |
| O=C(Nc1ccc(Cl)c(NC(=O)c2cccc(Cl)c2)c1)c1ccc(N2CCC(O)CC2)nc1 [compound 4] | potent | potent; also recorded: improved potencies | good pharmacokinetic properties | – |
| C[C@@H]1CN(c2ccc(C(=O)Nc3ccc(Cl)c(NC(=O)c4cccc(Cl)c4)c3)cn2)C[C@H](C)N1 [compound 5] | potent | potent; also recorded: improved potencies | good pharmacokinetic properties | half-life ([1]; mouse, single oral 100 mg kg-1 dose, plasma): 22 h |
| CC1=C2C[C@H]3[C@@H](CC=C4C[C@@H](O)CC[C@@]43C)[C@@H]2CC[C@]12O[C@@H]1C[C@H](C)CN[C@H]1[C@H]2C [cyclopamine] | – | – | – | potency against SMO-E518K (inhibition of Gli-luciferase activity) (SMO-E518K): completely resistant; potency against SMO-D473H (inhibition of Gli-luciferase activity) (SMO-D473H): partially resistant |
| HhAntag | essentially equipotent against all SMO alleles | essentially equipotent against all SMO alleles | – | activity against wild type SMO (inhibition of Gli-luciferase activity) (SMO-WT): essentially equipotent against all SMO alleles; metabolism by human hepatocytes [2]: rapidly metabolized |
